Measurements as given in ChEMBL document CHEMBL5465560, “Selectivity Literature for EUbOPEN Chemogenomic Library” (2024).

Key:
[1] = target: Eukaryotic translation initiation factor 2-alpha kinase 1 (Homo sapiens) (UniProt Q9BQI3); assay: Selectivity interaction (KinomeScan (DiscoverX)) EUB0000666a EIF2AK1; settings: at 10 µM
[2] = target: T1, Phosphatidylinositol 4,5-bisphosphate 3-kinase catalytic subunit delta isoform (Homo sapiens) (UniProt O00329); assay: Selectivity interaction (ActivX KiNativ screen (kinase selectivity in THP-1 cell lysates)) EUB0000639a PIK3CD; assay type: subcellular; settings: lysate, at 5 µM
T1 sequence (whole entry): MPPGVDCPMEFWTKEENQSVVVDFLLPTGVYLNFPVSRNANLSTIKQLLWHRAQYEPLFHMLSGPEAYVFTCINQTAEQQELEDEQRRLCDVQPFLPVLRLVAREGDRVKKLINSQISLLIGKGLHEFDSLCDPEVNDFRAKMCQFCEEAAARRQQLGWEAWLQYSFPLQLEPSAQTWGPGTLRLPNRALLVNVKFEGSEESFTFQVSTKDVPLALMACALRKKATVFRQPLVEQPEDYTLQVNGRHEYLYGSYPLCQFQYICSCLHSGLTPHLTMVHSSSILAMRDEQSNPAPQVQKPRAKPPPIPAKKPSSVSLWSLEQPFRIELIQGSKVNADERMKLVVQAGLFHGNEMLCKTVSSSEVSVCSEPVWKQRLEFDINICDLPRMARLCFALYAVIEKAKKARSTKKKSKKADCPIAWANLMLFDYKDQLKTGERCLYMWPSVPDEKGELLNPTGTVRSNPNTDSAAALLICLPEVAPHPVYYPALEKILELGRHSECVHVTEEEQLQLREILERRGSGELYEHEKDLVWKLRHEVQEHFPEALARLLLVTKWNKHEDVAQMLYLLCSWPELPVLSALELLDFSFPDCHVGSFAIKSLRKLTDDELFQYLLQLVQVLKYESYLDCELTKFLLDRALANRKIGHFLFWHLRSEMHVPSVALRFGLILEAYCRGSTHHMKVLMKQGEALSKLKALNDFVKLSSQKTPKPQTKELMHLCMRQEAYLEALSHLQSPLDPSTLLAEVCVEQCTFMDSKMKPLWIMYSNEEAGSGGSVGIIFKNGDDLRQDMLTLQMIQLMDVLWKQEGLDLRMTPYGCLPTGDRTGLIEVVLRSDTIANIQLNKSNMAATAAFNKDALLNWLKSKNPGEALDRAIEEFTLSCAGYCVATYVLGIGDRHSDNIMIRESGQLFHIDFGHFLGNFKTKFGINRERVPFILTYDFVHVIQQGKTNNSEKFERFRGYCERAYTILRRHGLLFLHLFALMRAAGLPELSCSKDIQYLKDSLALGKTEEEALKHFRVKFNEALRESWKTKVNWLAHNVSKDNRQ

[3] = target: T2, Calcium/calmodulin-dependent protein kinase type IV (Homo sapiens) (UniProt Q16566); settings: at 10 µM
T2 sequence (whole entry): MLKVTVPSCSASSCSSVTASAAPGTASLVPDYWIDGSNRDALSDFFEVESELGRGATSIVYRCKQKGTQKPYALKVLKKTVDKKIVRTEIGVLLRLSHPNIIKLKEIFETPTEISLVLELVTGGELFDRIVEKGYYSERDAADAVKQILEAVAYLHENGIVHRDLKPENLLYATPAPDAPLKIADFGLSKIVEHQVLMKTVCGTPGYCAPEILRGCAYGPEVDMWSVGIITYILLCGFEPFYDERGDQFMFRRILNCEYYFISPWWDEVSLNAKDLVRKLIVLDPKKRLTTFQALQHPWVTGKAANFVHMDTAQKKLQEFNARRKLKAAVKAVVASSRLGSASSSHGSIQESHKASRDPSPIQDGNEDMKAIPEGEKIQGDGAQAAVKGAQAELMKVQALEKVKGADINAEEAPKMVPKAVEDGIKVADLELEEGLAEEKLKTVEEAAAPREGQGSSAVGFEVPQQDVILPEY

[4] = target: T3, Dual specificity mitogen-activated protein kinase kinase 3 (Homo sapiens) (UniProt P46734); settings: at 10 µM
T3 sequence (whole entry): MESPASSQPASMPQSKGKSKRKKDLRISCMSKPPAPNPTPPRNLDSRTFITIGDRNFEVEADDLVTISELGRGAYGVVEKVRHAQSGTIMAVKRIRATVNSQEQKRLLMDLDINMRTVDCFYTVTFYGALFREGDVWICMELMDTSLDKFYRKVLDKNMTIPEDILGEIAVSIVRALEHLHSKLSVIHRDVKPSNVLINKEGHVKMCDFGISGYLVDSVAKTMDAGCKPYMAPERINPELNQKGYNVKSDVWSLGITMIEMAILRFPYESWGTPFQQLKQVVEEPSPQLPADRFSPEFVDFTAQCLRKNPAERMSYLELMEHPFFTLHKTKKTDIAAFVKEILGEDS

[5] = target: T4, Serine/threonine-protein kinase ULK3 (Homo sapiens) (UniProt Q6PHR2); assay: Selectivity interaction (KinomeScan (DiscoverX)) EUB0001619a ULK3; settings: at 1 µM
T4 sequence (whole entry): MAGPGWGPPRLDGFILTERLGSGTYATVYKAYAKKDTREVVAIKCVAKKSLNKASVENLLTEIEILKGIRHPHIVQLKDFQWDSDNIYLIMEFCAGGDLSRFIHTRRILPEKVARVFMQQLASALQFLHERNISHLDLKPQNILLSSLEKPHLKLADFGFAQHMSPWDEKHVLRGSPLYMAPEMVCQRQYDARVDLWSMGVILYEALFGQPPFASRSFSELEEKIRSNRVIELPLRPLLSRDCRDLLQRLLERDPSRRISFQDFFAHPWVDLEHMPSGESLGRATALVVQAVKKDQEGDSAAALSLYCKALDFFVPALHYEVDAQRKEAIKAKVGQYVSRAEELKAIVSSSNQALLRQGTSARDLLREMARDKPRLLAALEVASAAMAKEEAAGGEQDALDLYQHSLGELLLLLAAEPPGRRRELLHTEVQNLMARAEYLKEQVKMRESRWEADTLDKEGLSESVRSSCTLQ

[6] = target: Insulin receptor (Homo sapiens, UniProt P06213); assay: Selectivity interaction (Upstate Kinase Profiler service (Millipore)) EUB0000056c INSR; settings: at 1 µM
Sequence of Insulin receptor (P06213 28-758 limits assumed): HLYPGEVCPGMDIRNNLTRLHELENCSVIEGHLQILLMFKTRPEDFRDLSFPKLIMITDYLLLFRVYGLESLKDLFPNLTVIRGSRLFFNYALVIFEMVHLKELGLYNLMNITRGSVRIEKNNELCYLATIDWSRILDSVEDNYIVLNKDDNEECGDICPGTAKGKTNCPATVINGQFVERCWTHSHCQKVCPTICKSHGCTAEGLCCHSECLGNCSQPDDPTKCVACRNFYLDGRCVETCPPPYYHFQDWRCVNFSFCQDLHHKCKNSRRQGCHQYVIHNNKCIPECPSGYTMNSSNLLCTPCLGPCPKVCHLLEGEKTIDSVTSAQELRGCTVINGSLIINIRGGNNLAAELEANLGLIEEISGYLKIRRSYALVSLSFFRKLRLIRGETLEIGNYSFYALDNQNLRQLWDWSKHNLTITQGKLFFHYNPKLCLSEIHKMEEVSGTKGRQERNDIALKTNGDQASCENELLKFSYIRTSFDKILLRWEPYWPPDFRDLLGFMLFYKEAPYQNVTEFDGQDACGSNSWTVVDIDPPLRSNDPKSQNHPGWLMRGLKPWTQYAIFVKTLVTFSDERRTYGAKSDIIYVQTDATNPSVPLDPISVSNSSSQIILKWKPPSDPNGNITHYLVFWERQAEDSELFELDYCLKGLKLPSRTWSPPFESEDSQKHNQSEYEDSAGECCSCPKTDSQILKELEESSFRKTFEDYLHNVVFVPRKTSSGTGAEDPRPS
Sequence of Insulin receptor (P06213 763-1382 limits assumed): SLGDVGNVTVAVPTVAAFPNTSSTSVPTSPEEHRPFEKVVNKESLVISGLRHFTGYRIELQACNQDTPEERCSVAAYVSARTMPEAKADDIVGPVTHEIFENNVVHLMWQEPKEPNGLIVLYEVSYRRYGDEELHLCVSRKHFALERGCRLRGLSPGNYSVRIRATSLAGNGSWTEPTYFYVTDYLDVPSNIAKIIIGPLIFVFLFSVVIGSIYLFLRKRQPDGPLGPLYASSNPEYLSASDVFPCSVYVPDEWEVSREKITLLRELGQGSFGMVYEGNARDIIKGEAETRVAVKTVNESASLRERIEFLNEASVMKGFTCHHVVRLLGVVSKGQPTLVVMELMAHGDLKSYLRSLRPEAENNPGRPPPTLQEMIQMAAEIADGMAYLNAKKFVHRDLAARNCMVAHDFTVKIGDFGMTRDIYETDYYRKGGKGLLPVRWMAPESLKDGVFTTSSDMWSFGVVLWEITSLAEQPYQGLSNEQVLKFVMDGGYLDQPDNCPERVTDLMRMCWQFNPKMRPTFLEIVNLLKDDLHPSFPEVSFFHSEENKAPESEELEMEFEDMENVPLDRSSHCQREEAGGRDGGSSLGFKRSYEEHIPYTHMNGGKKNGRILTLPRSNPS

Sequence of Eukaryotic translation initiation factor 2-alpha kinase 1 (Homo sapiens) (Q9BQI3 whole entry, canonical isoform): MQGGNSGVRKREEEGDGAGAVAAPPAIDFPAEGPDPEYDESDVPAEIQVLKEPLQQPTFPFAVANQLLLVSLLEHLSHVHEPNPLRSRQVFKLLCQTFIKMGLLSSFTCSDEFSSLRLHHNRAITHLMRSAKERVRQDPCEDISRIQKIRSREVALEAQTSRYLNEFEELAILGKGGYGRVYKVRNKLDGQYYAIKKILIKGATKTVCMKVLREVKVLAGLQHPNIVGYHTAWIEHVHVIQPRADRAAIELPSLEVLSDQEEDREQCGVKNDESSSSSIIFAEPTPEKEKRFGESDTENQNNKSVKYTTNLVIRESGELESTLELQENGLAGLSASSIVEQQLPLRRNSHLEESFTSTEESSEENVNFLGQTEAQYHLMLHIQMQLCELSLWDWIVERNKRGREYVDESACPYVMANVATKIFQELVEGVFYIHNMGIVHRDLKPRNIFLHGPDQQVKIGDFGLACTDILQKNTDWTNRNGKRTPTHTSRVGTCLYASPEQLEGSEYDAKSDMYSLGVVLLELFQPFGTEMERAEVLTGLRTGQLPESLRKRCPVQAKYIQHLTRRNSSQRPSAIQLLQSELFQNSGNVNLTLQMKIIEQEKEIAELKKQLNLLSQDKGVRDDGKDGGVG

For `O=C(NOC[C@H](O)CO)c1ccc(F)c(F)c1Nc1ccc(I)cc1F`, the % of control [1] was 100%.

With `CC[C@@H]1[C@H](F)C(=O)N[C@@H]1COc1nccc2cc(C(N)=O)c(OC)cc12` [ZIMLOVISERTIB] the % of inhibition [2] was 18.5%.

`Cc1cc([C@@H](C)Nc2ccccc2C(=O)O)c2nc(N3CCOCC3)cc(=O)n2c1` [AZD-6482] was tested, and the % of control [3] was 100% and the % of control [4] was 100%.

`N#Cc1cccc(-c2c[nH]c3ncnc(N4CCOCC4)c23)c1` gave a % of control [5] of 25%.

With `Cc1ccc(-c2ccc3c(ccc4sc5c(c43)NC[C@@H](C)NC5=O)n2)cn1` the % of inhibition [6] was 5%.
